In ChEMBL document CHEMBL5608182, “Synthesis and evaluation of neuroactive steroids with novel pharmacophore at C-21 let identify a compound with advantageous PK profile and higher EC50 and Emax as PAM on GABAA receptor” (Eur J Med Chem, 2024) one finds Time and Activity data, which are given here for two compounds.

Data set [1] can be described thus: Toxicity in male Sprague-Dawley rat assessed as risk of consciousness loss by measuring time for first loss of righting reflex at 9.8 micromol/kg, ip measured within 4 hrs. The format is organism-based. The note with it: in vivo, dose 9.8 µmol/kg.
Data set [2] can be described thus: Toxicity in male Sprague-Dawley rat assessed as loss of righting reflex at 7.8 micromol/kg, ip measured within 4 hrs. The format is organism-based. The note with it: in vivo, dose 7.8 µmol/kg.
The nature of data set [3]: Toxicity in male Sprague-Dawley rat assessed as risk of consciousness loss by measuring time for first loss of righting reflex at 12.2 micromol/kg, ip measured within 4 hrs. The format is organism-based. Particulars: in vivo, dose 12.2 µmol/kg.
Data set [4] in a line: Genotoxicity in Salmonella typhimurium TA1535 assessed as induction of reverse mutation in absence of rat liver S9 fraction. The note with it: salmonella enterica subsp. enterica serovar typhimurium. The format is toxicity.
A short description of data set [5]: Genotoxicity in Salmonella typhimurium TA102 assessed as induction of reverse mutation in absence of rat liver S9 fraction. The format is toxicity. The note with it: salmonella enterica subsp. enterica serovar typhimurium.
Data set [6] can be described thus: Genotoxicity in Salmonella typhimurium TA100 assessed as induction of reverse mutation in absence of rat liver S9 fraction. Format: toxicity. Particulars: salmonella enterica subsp. enterica serovar typhimurium.
A short description of data set [7]: Genotoxicity in Salmonella typhimurium TA98 assessed as induction of reverse mutation in absence of rat liver S9 fraction. The format is toxicity. Particulars: salmonella enterica subsp. enterica serovar typhimurium.
For another data set, the system named is Rattus norvegicus. The experiment in a line: Antiseizure activity in PTZ-induced male Sprague-Dawley rat acute seizure model assessed as increase in latency to tonic seizures at 11.6 micromol/kg, po pretreated for 2 hrs followed by PTZ addition and measured after 60 mins (reference value: 77 +/- 13.4 sec). Format: functional. Particulars: dose 11.6 µmol/kg, time 180 min, 3 h.

The nature of data set [8]: Genotoxicity in Salmonella typhimurium TA100 assessed as induction of reverse mutation in presence of rat liver S9 fraction. The format is toxicity, subcellular. The note with it: salmonella enterica subsp. enterica serovar typhimurium.
A short description of data set [9]: Genotoxicity in Salmonella typhimurium TA97 assessed as induction of reverse mutation in absence of rat liver S9 fraction. Format: toxicity. Particulars: salmonella enterica subsp. enterica serovar typhimurium.
Data set [10] can be described thus: Toxicity in male Sprague-Dawley rat assessed as risk of consciousness loss by measuring time for first loss of righting reflex at 29.2 micromol/kg, ip measured within 4 hrs. The note with it: in vivo, dose 29.2 µmol/kg. The format is organism-based.
A short description of data set [11]: Genotoxicity in Salmonella typhimurium TA102 assessed as induction of reverse mutation in presence of rat liver S9 fraction. The format is toxicity, subcellular. The note with it: salmonella enterica subsp. enterica serovar typhimurium.
Data set [12] can be described thus: Toxicity in male Sprague-Dawley rat assessed as loss of righting reflex at 23.3 micromol/kg, ip measured within 4 hrs. Format: organism-based. The note with it: in vivo, dose 23.3 µmol/kg.

Take `C[C@@]1(O)CC[C@H]2[C@H](CC[C@@H]3[C@@H]2CC[C@]2(C)[C@@H](C(=O)Cn4cc(C#N)cn4)CC[C@@H]32)C1` [ZURANOLONE]: the figures for the Time in data set [1] and in [3] were 46 min and 33 min, respectively. The Activity entry in data set [2] is “Non-Toxic”.
In the case of `C[C@@]1(O)CC[C@H]2[C@H](CC[C@@H]3[C@@H]2CC[C@]2(C)[C@@H](C(=O)Cn4cnn(-c5cc(F)nc(F)c5)c4=O)CC[C@@H]32)C1`, the Activity result in data set [4], in data set [5], in data set [6], in [7], in data set [8] and in data set [9] was “Non-Toxic” in each case. For the same compound, the Activity entry in [11] and in [12] was “Non-Toxic” each time. The Time was 2686 s in the data set with Rattus norvegicus and 65 min in data set [10].
